IC50 data for 3 molecules are collected here from article PMC9434606 (RSC Advances, 2022).

The target of this assay is T1, pancreatic lipase (Sus scrofa, UniProt P00591).
T1 sequence (P00591 1-450): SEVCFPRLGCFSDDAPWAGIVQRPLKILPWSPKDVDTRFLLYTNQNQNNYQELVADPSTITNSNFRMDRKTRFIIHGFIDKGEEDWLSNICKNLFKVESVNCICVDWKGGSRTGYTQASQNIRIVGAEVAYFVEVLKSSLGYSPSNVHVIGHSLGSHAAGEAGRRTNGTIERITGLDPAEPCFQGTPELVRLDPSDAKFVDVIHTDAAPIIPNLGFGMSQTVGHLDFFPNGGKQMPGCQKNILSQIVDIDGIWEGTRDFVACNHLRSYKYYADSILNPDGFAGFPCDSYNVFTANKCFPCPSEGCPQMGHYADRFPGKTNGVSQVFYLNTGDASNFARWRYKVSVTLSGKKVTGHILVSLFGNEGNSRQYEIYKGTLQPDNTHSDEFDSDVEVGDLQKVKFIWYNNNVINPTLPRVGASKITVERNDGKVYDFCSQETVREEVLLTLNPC
The assay is described as follows: pancreatic lipase inhibition assay. In kind it is biochemical.
As for `COc1cc(O)c2c(c1)C1(OC2=O)C(C)=CC(=O)C1O` (stereo not drawn) [Compound 1, talaroflavone], the IC50 – broadly, the concentration at which inhibition is half-maximal – was 73.8 ± 0.82 µM.

In turn, `COc1cc(O)c(C(=O)O)c(-c2cc(O)c(O)cc2C)c1` [Compound 4, altenusin] displayed an IC50 of 21.5 ± 0.97 µM.

As for `Cc1cc(O)cc2oc(=O)c3c(O)cc(O)cc3c12` [Compound 5, alternariol], the IC50 is 56.8 ± 0.77 µM.
